We go through six compounds from US11629171B2, “Beta-hairpin peptidomimetics” (POLYPHOR AG, priority 2017, dated 2023).

Format in all cases: cell-based
In series [1] the test system is Klebsiella pneumoniae 968733. As to conditions: 968733. In a few lines:
(§1)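 Peptides are tested in serial two-fold dilutions against about 10^6 CFU/mL in MH-II broth containing 0.002% P-80 (v/v, final). Plates incubate 18-20 h at 35° C, and the MIC is the lowest peptide level (μg/mL) showing no visible growth.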

Series [2] concerns Pseudomonas aeruginosa ATCC 27853. The note with it: ATCC 27853. In a few lines:
as §1

The subject of series [3] is Acinetobacter baumannii DSM 30008. As to conditions: DSM 30008. In a few lines:
as §1

The test system of series [4] is Enterobacter cloacae 848840. As to conditions: 848840. In a few lines:
as §1

Series [5] relates to Acinetobacter baumannii 872842. The note with it: 872842. In a few lines:
as §1

A further series deals with Escherichia coli 926415. The note with it: 926415. In a few lines:
as §1

Series [6] has as its system Escherichia coli ATCC 25922. As to conditions: ATCC 25922. In a few lines:
as §1

Series [7] has as its system Klebsiella pneumoniae SSI #3010. The note with it: SSI #3010. In a few lines: as §1
The test system of series [8] is human red blood cells (hRBC). As to the kind of experiment: Hemolysis. The note with it: red cells of human, 1 h, 200. In a few lines:
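Percent hemolysis relative to 2% Triton X-100 (100%) and PBS/10% water (0%), from blank-corrected OD540 of diluted supernatants. Peptides tested at 200 μg/mL against 20% (v/v) washed human erythrocytes, 1 h, 37° C, shaking at 300 rpm.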

The structures appear in SMILES notation. In brackets after ≈: the same amount, converted by molar mass. Where a SMILES comes first, the peptide text is derived from it. Bridges are numbered along the chain shown (N, C = ends). Roman numbers before positions name the chains, in order. [ ]: non-standard residue; d: D form. Tle = CC(C)(C)[C@H](N)C(=O)O; NMeV = CN[C@H](C(=O)O)C(C)C; Hiv = CC(C)[C@H](O)C(=O)O; dDab = NCC[C@@H](N)C(=O)O; hSer = N[C@@H](CCO)C(=O)O; Dab = NCC[C@H](N)C(=O)O; Dap = NC[C@H](N)C(=O)O

In the case of `CC(C)C[C@@H]1NC(=O)[C@@H](CC(C)C)NC(=O)[C@H](CCN)NC(=O)[C@@H](NC(=O)[C@H](CCN)NC(=O)[C@@H](NC(=O)[C@H](CCN)NC(=O)CC[C@@H]2NC(=O)[C@H](CCN)NC(=O)[C@H](Cc3ccc(O)cc3)NC(=O)[C@@H](NC(=O)[C@@H](O)C(C)C)CSSC[C@@H](C(N)=O)NC(=O)[C@H](C(C)(C)C)NC(=O)[C@H](CO)NC(=O)[C@H](Cc3c[nH]c4ccccc34)NC(=O)[C@H](CCO)NC(=O)[C@@H](CCN)NC2=O)[C@@H](C)O)CCNC(=O)[C@H]([C@@H](C)O)NC(=O)[C@H](CCN)NC(=O)[C@H](CCN)NC1=O` [Example 7] (I: H-[Hiv]CY[Dab]E[dDab][hSer]WS[Tle]C-NH2 / II: [Dab]T[Dab][Dab][Dab][dL]L[Dab][Dab]T; disulfide I:2-I:11; amide I:5-II:N; lactam II:4-II:C), the minimal inhibitory concentration (MIC) in series [1] turned out to be 0.25 µg/mL (≈ 0.108 µM); in series [2], 0.125 µg/mL (≈ 0.054 µM); in series [3], 0.0625 µg/mL (≈ 0.027 µM); in series [4], 2 µg/mL (≈ 0.865 µM); in series [5] it was 1 µg/mL (≈ 0.432 µM); against Escherichia coli 926415, 0.5 µg/mL (≈ 0.216 µM). For the same compound, the MIC in series [6] and in series [7] was 0.125 µg/mL (≈ 0.054 µM) in each case. Moreover, in series [8], the “Hemolysis at 200 μg/mL” value is below 1%.
`CC(=O)N[C@H](C(=O)N[C@H]1CSSC[C@@H](C(N)=O)NC(=O)[C@H](C(C)(C)C)NC(=O)[C@H](CO)NC(=O)[C@H](Cc2c[nH]c3ccccc23)NC(=O)[C@H](CO)NC(=O)[C@@H](CCN)NC(=O)[C@H](CCC(=O)N[C@@H](CCN)C(=O)N[C@H](C(=O)N[C@@H](CN)C(=O)N[C@H]2CCNC(=O)[C@H]([C@@H](C)O)NC(=O)[C@H](CCN)NC(=O)[C@H](CCN)NC(=O)[C@H](CC(C)C)NC(=O)[C@@H](CC(C)C)NC(=O)[C@H](CCN)NC2=O)[C@@H](C)O)NC(=O)[C@H](CN)NC(=O)[C@H](Cc2ccc(O)cc2)NC1=O)C(C)C` [Example 8] (I: Ac-VCY[Dap]E[dDab]SWS[Tle]C-NH2 / II: [Dab]T[Dap][Dab][Dab][dL]L[Dab][Dab]T; disulfide I:2-I:11; amide I:5-II:N; lactam II:4-II:C): the MIC in [1] was determined as 0.25 µg/mL (≈ 0.108 µM); in series [2] it was 0.125 µg/mL (≈ 0.0541 µM); in series [3], 0.125 µg/mL (≈ 0.0541 µM); in series [4] it was 0.25 µg/mL (≈ 0.108 µM); in series [5], 0.0625 µg/mL (≈ 0.027 µM); against Escherichia coli 926415 it was 0.5 µg/mL (≈ 0.216 µM). The MIC in series [6] is 0.0625 µg/mL (≈ 0.027 µM); in [7] it was 0.125 µg/mL (≈ 0.0541 µM). In series [8], the “Hemolysis at 200 μg/mL” value is below 1%.
`CN[C@H](C(=O)N[C@H]1CSSC[C@@H](C(N)=O)NC(=O)[C@H](C(C)(C)C)NC(=O)[C@H](CO)NC(=O)[C@H](Cc2c[nH]c3ccccc23)NC(=O)[C@H](CCN)NC(=O)[C@@H](CCN)NC(=O)[C@H](CCC(=O)N[C@@H](CCN)C(=O)N[C@H](C(=O)N[C@@H](CN)C(=O)N[C@H]2CCNC(=O)[C@H]([C@@H](C)O)NC(=O)[C@H](CCN)NC(=O)[C@H](CCN)NC(=O)[C@H](CC(C)C)NC(=O)[C@@H](CC(C)C)NC(=O)[C@H](CCN)NC2=O)[C@@H](C)O)NC(=O)[C@H](CN)NC(=O)[C@H](Cc2ccc(O)cc2)NC1=O)C(C)C` [Example 9] (I: H-[NMeV]CY[Dap]E[dDab][Dab]WS[Tle]C-NH2 / II: [Dab]T[Dap][Dab][Dab][dL]L[Dab][Dab]T; disulfide I:2-I:11; amide I:5-II:N; lactam II:4-II:C): the MIC came to 0.5 µg/mL (≈ 0.218 µM) in series [1]; 0.125 µg/mL (≈ 0.0544 µM) in series [2]; 0.125 µg/mL (≈ 0.0544 µM) in [3]; 0.25 µg/mL (≈ 0.109 µM) in series [4]; 0.125 µg/mL (≈ 0.0544 µM) in series [5]; 1 µg/mL (≈ 0.435 µM) with Escherichia coli 926415. In addition, the MIC in series [6] and in series [7] was 0.125 µg/mL (≈ 0.0544 µM) throughout. The “Hemolysis at 200 μg/mL” value in series [8] is given as below 1%.
Turning to `CC(=O)N[C@H](C(=O)N[C@H]1CSSC[C@@H](C(N)=O)NC(=O)[C@H](C(C)(C)C)NC(=O)[C@H](CO)NC(=O)[C@H](Cc2c[nH]c3ccccc23)NC(=O)[C@H](CCN)NC(=O)[C@@H](CCN)NC(=O)[C@H](CCC(=O)N[C@@H](CCN)C(=O)N[C@H](C(=O)N[C@@H](CN)C(=O)N[C@H]2CCNC(=O)[C@H]([C@@H](C)O)NC(=O)[C@H](CCN)NC(=O)[C@H](CCN)NC(=O)[C@H](CC(C)C)NC(=O)[C@@H](CC(C)C)NC(=O)[C@H](CCN)NC2=O)[C@@H](C)O)NC(=O)[C@H](CN)NC(=O)[C@H](Cc2ccc(O)cc2)NC1=O)C(C)C` [Example 10] (I: Ac-VCY[Dap]E[dDab][Dab]WS[Tle]C-NH2 / II: [Dab]T[Dap][Dab][Dab][dL]L[Dab][Dab]T; disulfide I:2-I:11; amide I:5-II:N; lactam II:4-II:C), the MIC in [1] was found to be 0.5 µg/mL (≈ 0.215 µM); in series [2], 0.125 µg/mL (≈ 0.0538 µM); in [3] it was 0.125 µg/mL (≈ 0.0538 µM); in series [4], 0.25 µg/mL (≈ 0.108 µM); in [5], 0.125 µg/mL (≈ 0.0538 µM); in the series with Escherichia coli 926415, 8 µg/mL (≈ 3.44 µM). Besides, the MIC in [6] and in [7] was 0.25 µg/mL (≈ 0.108 µM) throughout. In [8], the “Hemolysis at 200 μg/mL” value was below 1%.
In the case of `CC(=O)N[C@H](C(=O)N[C@H](C(=O)N[C@@H](Cc1ccc(O)cc1)C(=O)N[C@H]1CSSC[C@@H](C(=O)N[C@H](C(=O)N[C@@H](CO)C(N)=O)C(C)C)NC(=O)[C@H](Cc2c[nH]c3ccccc23)NC(=O)[C@H](CCO)NC(=O)[C@@H](CCN)NC(=O)[C@H](CCC(=O)N[C@@H](CCN)C(=O)N[C@H](C(=O)N[C@@H](CCN)C(=O)N[C@H]2CCNC(=O)[C@H]([C@@H](C)O)NC(=O)[C@H](CCN)NC(=O)[C@H](CCN)NC(=O)[C@H](CC(C)C)NC(=O)[C@@H](CC(C)C)NC(=O)[C@H](CCN)NC2=O)[C@@H](C)O)NC1=O)[C@@H](C)O)C(C)C` [Example 11] (I: Ac-VTYCE[dDab][hSer]WCVS-NH2 / II: [Dab]T[Dab][Dab][Dab][dL]L[Dab][Dab]T; disulfide I:4-I:9; amide I:5-II:N; lactam II:4-II:C), the MIC came out at 4 µg/mL (≈ 1.71 µM) in series [1]; 0.25 µg/mL (≈ 0.107 µM) in series [2]; 0.125 µg/mL (≈ 0.0534 µM) in series [3]; 2 µg/mL (≈ 0.854 µM) in series [4]; 8 µg/mL (≈ 3.42 µM) in series [5]; 4 µg/mL (≈ 1.71 µM) in the series with Escherichia coli 926415. Besides, the MIC in series [6] and in series [7] was 0.125 µg/mL (≈ 0.0534 µM) in each case. Besides, the “Hemolysis at 200 μg/mL” value in series [8] was 1%.
Consider `CN[C@H](C(=O)N[C@H]1CSSC[C@@H](C(N)=O)NC(=O)[C@H](C(C)C)NC(=O)[C@H](CCO)NC(=O)[C@H](Cc2c[nH]c3ccccc23)NC(=O)[C@H](CCO)NC(=O)[C@@H](CCN)NC(=O)[C@H](CCC(=O)N[C@@H](CCN)C(=O)N[C@H](C(=O)N[C@@H](CCN)C(=O)N[C@H]2CCNC(=O)[C@H]([C@@H](C)O)NC(=O)[C@H](CCN)NC(=O)[C@H](CCN)NC(=O)[C@H](CC(C)C)NC(=O)[C@@H](CC(C)C)NC(=O)[C@H](CCN)NC2=O)[C@@H](C)O)NC(=O)[C@H](CCN)NC(=O)[C@H](Cc2ccc(O)cc2)NC1=O)C(C)C` [Example 57] (I: H-[NMeV]CY[Dab]E[dDab][hSer]W[hSer]VC-NH2 / II: [Dab]T[Dab][Dab][Dab][dL]L[Dab][Dab]T; disulfide I:2-I:11; amide I:5-II:N; lactam II:4-II:C), for which the MIC in series [1] came out at 4 µg/mL (≈ 1.72 µM); in series [2], 0.25 µg/mL (≈ 0.107 µM); in [3], 0.125 µg/mL (≈ 0.0537 µM); in [4], 0.25 µg/mL (≈ 0.107 µM); in [5], 0.5 µg/mL (≈ 0.215 µM); against Escherichia coli 926415, 0.5 µg/mL (≈ 0.215 µM). The values for the MIC in [6] and in series [7] were 0.125 µg/mL (≈ 0.0537 µM) and 0.25 µg/mL (≈ 0.107 µM), respectively. In addition, the “Hemolysis at 200 μg/mL” value in series [8] was determined as 3%.

By MIC is commonly meant the lowest concentration found to suppress growth. The low end stands for inhibition by little substance, the high end for a need for much substance.
